Reference: patent publication US20160346249A1 (priority 2012, published 2016)

Tests used:
[1] = Brain and plasma levels of amitifadine and lactam metabolite EB-10101 in rat; format: in vivo; design: metabolite plasma level (mean±SEM): unit not given here; conditions: for metabolite plasma level (mean±SEM): amitifadine 10 mg/kg po
Protocol: The studies are conducted in accordance with the Institutional Animal Care and Use Committee guidelines. […] At 0.5, 1, 2, and 4 hour after dosage, animals are briefly anesthetized in a chamber containing 4% isoflurane and rapidly decapitated. Trunk blood is collected in heparinized tubes (9 units/ml whole blood), immediately chilled to 4° C., centrifuged, and the plasma is frozen at −80° C. until analyzed. Brains are quickly removed, bisected along the midline, and frozen at −80° C. until analyzed.
Plasma and brain samples are allowed to thaw on ice and are homogenized in a 20 ml glass vial in two volumes of ice cold water using a handheld homogenizer (VDI 12, VWR International). Standard curves are prepared in water, control plasma, and control brain homogenate. Equal volumes (100 μl) of plasma and brain homogenate samples, distilled water and internal standard are mixed in 1.5 ml polypropylene tubes and 300 μl of acetonitrile is added to each mixture. Samples are then mixed thoroughly by placing on a shaker at 200 RPM for 40 minutes at room temperature. The samples are then centrifuged at 10,000×g for 10 minutes at 4° C. and the supernatant (200 μl) is transferred to a tube containing 2 μl of 10% formic acid. The samples are subjected to a Zorbax SBC18 Solvent Saver Plus 3.0×150 mm 3.5-μm column on a Shimadzu Prominence LC. […] The concentration of compound in the column effluent is measured using an Applied Biosystems API-3200 triple quadrupole mass spectrometer.

[2] = molecular target: T1, serotonin transporters (SERT) in the human brain (Homo sapiens, UniProt P31645); assay: Open label PET study with [11C]DASB (DOV 947-007); format: in vivo; conditions: for brain SERT occupancy: 150 mg single oral dose; for Mean (Range) SERT Occupancy, Mean / Mean (Range) SERT Occupancy, Striatum / Mean (Range) SERT Occupancy, Thalamus: EB-1010 150 mg single oral, N = 3, preliminary
T1 construct: from tissue; host or cells: brain of healthy male volunteers, in vivo PET with [11C]DASB
From the text: With PET imaging, uptake inhibitor effects may be measured based on the proportion of SERT sites blocked in the brain. […] Safety was monitored by clinical and laboratory evaluations, including vital signs, physical examination, clinical chemistry, hematology, urinalysis, and ECG.

[3] = Phase 1b multiple-dose placebo-controlled safety study, 8 weeks; format: in vivo, human
From the text: This Phase 1b study enrolled 46 male and female subjects.

[4] = Anesthetized dog intravenous cardiovascular study; format: in vivo
Protocol: Whole blood samples were collected via a cannulated femoral vein at 0, 10, 20, and 29 minutes (timed from the start of each dose administration).
A separate group of 4 dogs was infused with vehicle only (30-60 mL over 90 minutes) for comparison. […] Whole blood samples were collected for determination of peak plasma concentrations (see Section 5.3.3) following infusion of each dose.

[5] = Dog oral cardiovascular (radiotelemetry) study; format: in vivo
Protocol: There were four male and four female dogs per group. Surgical implantation of radiotelemetry devices occurred under anesthesia approximately 1 week prior to study initiation. The test article was administered according to a Latin square design such that each radiotelemetry-implanted dog received each treatment once, with a 7-day washout period between doses. Clinical examinations and detailed physical examinations were performed, and individual body weights were recorded on dosing days.

[6] = 8 weeks, 25 to 75 mg BID, N = 31, Safety Population

T1 sequence (P31645 whole entry): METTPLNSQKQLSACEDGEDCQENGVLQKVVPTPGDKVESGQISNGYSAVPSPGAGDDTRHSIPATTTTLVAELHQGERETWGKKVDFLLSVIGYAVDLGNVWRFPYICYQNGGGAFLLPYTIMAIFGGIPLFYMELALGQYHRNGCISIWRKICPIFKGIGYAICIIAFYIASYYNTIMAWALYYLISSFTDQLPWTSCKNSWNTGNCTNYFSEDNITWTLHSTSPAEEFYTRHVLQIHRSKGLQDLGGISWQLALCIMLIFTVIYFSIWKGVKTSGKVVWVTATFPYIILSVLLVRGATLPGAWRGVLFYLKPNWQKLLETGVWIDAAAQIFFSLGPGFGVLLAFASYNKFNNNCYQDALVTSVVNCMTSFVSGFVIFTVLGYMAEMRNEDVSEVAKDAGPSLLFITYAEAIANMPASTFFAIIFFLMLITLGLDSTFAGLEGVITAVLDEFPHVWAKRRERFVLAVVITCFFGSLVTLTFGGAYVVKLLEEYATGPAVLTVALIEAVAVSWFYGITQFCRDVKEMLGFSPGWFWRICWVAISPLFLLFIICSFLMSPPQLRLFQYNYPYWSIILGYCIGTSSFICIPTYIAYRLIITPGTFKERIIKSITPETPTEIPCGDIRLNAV

O=C1NCC2(c3ccc(Cl)c(Cl)c3)CC12 (stereo not drawn) [EB-10101, 5-(3,4-dichloro-phenyl)-3-aza-bicyclo[3.1.0]hexan-2-one]
metabolite plasma level (mean±SEM) ([1]; 0.5 h): 1153±610
metabolite plasma level (mean±SEM) ([1]; 1 h): 1620±303
metabolite plasma level (mean±SEM) ([1]; 2 h): 3831±1127
metabolite plasma level (mean±SEM) ([1]; 4 h): 8896±794
Kp at 0.5 h ([1]; male, Sprague-Dawley, rat, brain and plasma, 10 mg/kg oral, 0.5 h, read-out: brain to plasma ratio): 1.1
Kp at 1 h ([1]; male, Sprague-Dawley, rat, brain and plasma, 10 mg/kg oral, 1 h, read-out: brain to plasma ratio): 1.3
Kp at 2 h ([1]; male, Sprague-Dawley, rat, brain and plasma, 10 mg/kg oral, 2 h, read-out: brain to plasma ratio): 1.4
Kp at 4 h ([1]; male, Sprague-Dawley, rat, brain and plasma, 10 mg/kg oral, 4 h, read-out: brain to plasma ratio): 1.7

Clc1ccc([C@]23CNC[C@H]2C3)cc1Cl [amitifadine, (+)-1-(3,4-dichlorophenyl)-3-azabicyclo[3.1.0]hexane]
brain SERT occupancy ([2]; about 2 hours): approximately 48%
brain SERT occupancy ([2]; about 7 hours): ~32%
brain SERT occupancy ([2]; about 7 hours, listed as EB-1010): approximately 32%
Mean (Range) SERT Occupancy, Mean ([2]; ~2 h): 48 (43-54) %
Mean (Range) SERT Occupancy, Striatum ([2]; ~2 h): 48 (44-53) %
Mean (Range) SERT Occupancy, Thalamus ([2]; ~2 h): 48 (41-55) %
Mean (Range) SERT Occupancy, Mean ([2]; ~7 h): 32 (23-41) %
Mean (Range) SERT Occupancy, Striatum ([2]; ~7 h): 32 (23-37) %
Mean (Range) SERT Occupancy, Thalamus ([2]; ~7 h): 33 (22-44) %
Abdomibal Pain Upper, % of subjects [3, 6]: 0.0%
Abdomibal Pain Upper, number of subjects with AE [3, 6]: 0
Abdominal Pain Lower, % of subjects [3, 6]: 0.0%
Abdominal Pain Lower, number of subjects with AE [3, 6]: 0
Diarrhea, % of subjects [3, 6]: 6.5%
Diarrhea, number of subjects with AE [3, 6]: 2
Dizziness, % of subjects [3, 6]: 6.5%
Dizziness, number of subjects with AE [3, 6]: 2
Gastroesophageal Reflux Disease, % of subjects [3, 6]: 0.0%
Gastroesophageal Reflux Disease, number of subjects with AE [3, 6]: 0
Headache, % of subjects [3, 6]: 22.6%
Headache, number of subjects with AE [3, 6]: 7
Hyperhidrosis, % of subjects [3, 6]: 3.2%
Hyperhidrosis, number of subjects with AE [3, 6]: 1
Increased Appetite, % of subjects [3, 6]: 3.2%
Increased Appetite, number of subjects with AE [3, 6]: 1
Metrorrhagia, % of subjects [3, 6]: 3.2%
Metrorrhagia, number of subjects with AE [3, 6]: 1
Nausea, % of subjects [3, 6]: 16.1%
Nausea, number of subjects with AE [3, 6]: 5
Pruritus, % of subjects [3, 6]: 3.2%
Pruritus, number of subjects with AE [3, 6]: 1
Rhinitis Allergic, % of subjects [3, 6]: 3.2%
Rhinitis Allergic, number of subjects with AE [3, 6]: 1
Skin Rash, % of subjects [3, 6]: 3.2%
Skin Rash, number of subjects with AE [3, 6]: 1
Subjects with at Least One AE, % [3, 6]: 35.5%
Syncope, % of subjects [3, 6]: 0.0%
Syncope, number of subjects with AE [3, 6]: 0
Toothache, % of subjects [3, 6]: 3.2%
Toothache, number of subjects with AE [3, 6]: 1
Total Number of Subjects with at Least One AE [3, 6]: 11
proportion of subjects with TEAEs ([3]; 25-75 mg BID, 8 weeks): 36%
Completed Subjects, % ([3]; Randomized Population, N = 31): 74.2%
Premature discontinuation: Adverse Event, % ([3]; Randomized Population, N = 31): 3.2%
Premature discontinuation: Allergic Reaction to Study Medication, % ([3]; Randomized Population, N = 31): 3.2%
Premature discontinuation: Lost to Follow Up, % ([3]; Randomized Population, N = 31): 3.2%
Premature discontinuation: Other, % ([3]; Randomized Population, N = 31): 9.7%
Premature discontinuation: Subject Requested Withdrawal, % ([3]; Randomized Population, N = 31): 6.5%
Withdrawal/Early Termination, % ([3]; Randomized Population, N = 31): 25.8%
reduction in mean triglyceride levels ([3]; end of treatment period): ~29%
reduction in mean triglyceride levels ([3]; following 2 weeks of treatment): ~23%
subjects who dropped out due to AEs ([3]; in vivo): 3.2%
hemolysis in derived plasma fractions ([4]; IV infusion 2-29 mg/kg cumulative): Dose-related hemolysis was apparent
change in BF ([4]; top dose): −57%
change in HR ([4]; top dose): +10%
change in PR interval vs baseline ([4]; top dose): −9%
change in QRS interval vs baseline ([4]; top dose): +2%
change in QTC interval vs baseline ([4]; top dose): +2%
change in femoral vascular resistance ([4]; top dose): +354%
change in QTcV interval ([5]; 10 mg/kg oral): < 2%
NOEL ([5]; single oral capsule): 10 mg/kg
